Measurements as given in US20070213366A1, “Treatment of Synucleinopathies” (priority 2005, published 2007).
Entries after “also recorded” stand apart in the source; their conditions may differ.

Key:
α-synuclein [1] = assay: α-synuclein degradation/accumulation assay in COS-7 cells; format: cell-based
Excerpt: Plasmids: C220S cDNA was generated by PCR site-specific mutagenesis. For the PCR, the 5′ primer is uchforw SEQ ID NO: 1 ([…]), and 3′ primer is uchc220s SEQ ID NO:2 (CTAAGA […]). Wt UCH-L1 served as the template. The PCR fragment was inserted into pcDNA vector. For S 18YC220S mutant, S18Y UCH-L1 served as the template in PCR. For the FLAG tagged UCH-L1, the 5′ primer is FLAGuchforw SEQ ID NO: 3 ([…] CGATGGAG), and the 3′ primer is uchrev SEQ ID NO: 4 ([…]). Wt UCH-L1 or C220S served as the template. PCR fragment was purified and inserted into pcDNA vector. For the FLAG tagged UCH-L3, the 5′ primer is L3HindIII SEQ ID NO: 5 (CTAAAGCTTATGGACTAC […]), the 3′primer is L3XhoISAA SEQ ID NO: 6 ([…]). For the UCH-L3 CKAA variant, the 5′ primer is L3 HindIII and the 3′ primer is L3XhoICKAA SEQ ID NO: 7 ([…]). α-synuclein degradation assay: Lipofectamine 2000 was used to transfect COS-7 cells according to the Invitrogen protocol. Transfected cells were cultured at 37° C. for 48 hours before being treated with 35 μM lactacystin or DMSO. After 24 hours of incubation, the cells were lysed with Tris buffer (50 mM Tris, 2% SDS, 0.1% NP-40), and subjected to SDS-PAGE, followed by quantitative Western blotting.
In order to isolate the latter possibility, a mutant form of UCH-L3 was constructed in which the UCH-L1 farnesylation sequence was added to the UCH-L3 C-terminus. […]

[2] = tested on: primary dopaminergic cultures; assay: α-synuclein toxicity in primary dopaminergic cultures; format: cell-based
α-synuclein [3] = assay: Western blot of α-synuclein in SH-SY5Y cells infected with α-synuclein-expressing adenovirus; format: cell-based; settings: normalized against actin
Procedure: (§1) Western Blotting: Following transfer of SDS gels onto NC membrane, all membranes were blocked with 5% non-fat milk in TBST (50 mM Tris-HCl pH7.4, 150 mM NaCl, 0.1% Tween 20), and incubated with primary antibody overnight with 1% BSA in TBST, washed three times with TBST, and incubated with horseradish peroxidase-conjugated secondary antibody for 1 hour (Promega). Bound antibodies were detected using enhanced chemiluminascence (NEM).
Since α-synuclein neurotoxicity is dose-dependent, it follows that accumulation of α-synuclein, caused by UCH-L1 farnesylation, should promote its toxicity. […] These cells express high endogenous levels of UCH-L1. […] The unit of y-axis is 10^5/ml. (F) Cell viability was assessed by the amount of metabolic activity using MTT assay. […] The effect of FTI-277 on the α-synuclein accumulation in the SH-SY5Y infected with α-synuclein-expressing adenovirus were analyzed by Western blotting (B) and the amount of α-synuclein (C) was quantified using NIH Image program and normalized against the amount of actin.

UCH-L1 [4] = assay: 2D electrophoresis and Western blot of membrane-bound and cytosolic UCH-L1 in SH-SY5Y cells; format: cell-based; settings: compared to DMSO
Procedure: Membrane fractionation: Cells were harvested by scraping and washed with PBS. Cell pellet was suspended in lysis buffer (50 mM Tris-HCl, 1 mM EDTA) supplemented with protease inhibitor cocktail (Sigma) and homogenized by passing through 26G needles 10 times. Suspension was clarified by spinning at 600 g for 5 minutes. Clarified suspension was ultracentrifuged at 100,000 g for 2 hours and separated into membrane and cytosol. Membrane fraction washed with washing buffer (50 mM Tris-HCl, 1 mM EDTA 1 M NaCl), and pelleted each time with bench-top centrifuge.
2D electrophoresis: For the isolation of total cellular protein, cultured SH-SY5Y cells maintained as described above were rinsed with ice-cold PBS. Cells were lysed in 1 ml dSDS buffer (50 mM Tris-HCl, pH 8.0 0.1% SDS) supplemented with protease inhibitor cocktail. Lysates were boiled for 3 min, and were treated with Dnase and Rnase as described. […]
as §1, with “(NEM). […]” for “(NEM).”

UCH-L1 [5] = assay: Total amount and turnover (pulse-chase) of UCH-L1 in SH-SY5Y cells; format: cell-based
[6] = tested on: SH-SY5Y cells overexpressing α-synuclein; assay: Viability (Trypan blue, MTT) of SH-SY5Y cells infected by α-synuclein-expressing adenovirus; format: cell-based
Procedure: Viral Infection: Viral infection and MTT assay in SH-SY5Y cells: The viruses were amplified and purified according to the published procedure. SH-SY5Y cells were grown on 100 mm petri-dishes and induced with 100 nM retinoic acid for 3-5 days before the virus infection with M.I.O at 75. Viruses were diluted with DPBS to desired M.I.O. After four hours of incubation, 10 ml growth medium was added. On the second day, cells were splitted into 96-well plates and treated with compounds for next 48 hours. The growth medium in each well was replaced with growth medium with 5 ug/ml MTT. Medium was removed after three hours incubation, and 200 ul isopropyl (0.04N HCl) was added into each well. The signal was read at 570 nm.
Viable cell counting: At stated time poins, SH-SY5Y cells were trypsinized with 100 ul trypsin-EDTA for 1 minute and neutralized with 400 ul growth medium. Cell suspension was made up by mixing 0.2 ml of cells in growth medium, 0.3 ml of HBSS and 0.5 ml of 0.4% Trypan Blue solution. Viable cell numbers were counted by standard cell counting chamber.
Since α-synuclein neurotoxicity is dose-dependent, it follows that accumulation of α-synuclein, caused by UCH-L1 farnesylation, should promote its toxicity. […] These cells express high endogenous levels of UCH-L1. […] The unit of y-axis is 10^5/ml. (F) Cell viability was assessed by the amount of metabolic activity using MTT assay. […]

human α-synuclein = assay: Immunostaining of α-synuclein inclusions in cortex and hippocampus of α-synuclein transgenic mice; format: in vivo
Procedure: Farnesyl transferase inhibitors Zarnestra and OSI-754 were administered to mice of the α-synuclein transgenic line described in Masliah et al. (Masliah et al. “Dopaminergic loss and inclusion body formation in alphα-synuclein mice: implications for neurodegenerative disorders” Science 287(5456): 1265-69, 2000; incorporated herein by reference). Animals from this line have α-synuclein neuronal inclusions in the cortex, hippocampus, and the olfactory bulb (Masliah et al. “Dopaminergic loss and inclusion body formation in alphα-synuclein mice: implications for neurodegenerative disorders” Science 287(5456): 1265-69, 2000; incorporated herein by reference). Transgenic mice were orally administered either FTI in 20% cyclodextrin solution or the same volume of vehicle alone twice a day for 30 or 90 days. In some cases, non-transgenic mice also received vehicle twice a day for 30 to 90 days. At the end of treatment, mice were sacrificed, and the brains removed and hemisected. One hemisphere of each was fixed in 4% paraformaldehyde/PBS (pH 7.4), cryoperserved, then sectioned for histology. The other hemisphere was subdivided into four brain regions, including the cortex and hippocampus, that were homogenized and processed into cytoplasmic and membrane fractions.
Formation of α-synuclein inclusions in the cortex and hippocampus was probed by immunostaining with an antibody for full-length human α-synuclein. Cells positive for human α-synuclein were quantified. […] These regions were also analyzed for ubiquitin-immunoreactive inclusions and by the Campbell Switzer method of silver staining. Ubiquitin is known to be a constituent of Lewy Bodies and in the α-synculein inclusions found in the transgenic mouse line used in the study (Masliah et al. “Dopaminergic loss and inclusion body formation in alphα-synuclein mice: implications for neurodegenerative disorders” Science 287(5456): 1265-69, 2000; incorporated herein by reference). […] Campbell-Switzer staining is a general marker of Lewy Body type inclusions (Uchihara et al. “Silver stainings distinguish Lewy bodies and glial cytoplasmic inclusions: comparison between Gallyas-Braak and Campbell-Switzer methods” Acta Neuropathol. (Berl) 110(3):255-60, 2005; incorporated herein by reference).
(§2) Formation of α-synuclein inclusions in the cortex and hippocampus was probed by immunostaining with an antibody for full-length human α-synuclein. Cells positive for human α-synuclein were quantified.

farnesylated UCH-L1 = assay: Quantitative Western blot of farnesylated UCH-L1 in cortex membrane fraction of α-synuclein transgenic mice; format: in vivo
Procedure: (§3) Farnesyl transferase inhibitors Zarnestra and OSI-754 were administered to mice of the α-synuclein transgenic line described in Masliah et al. (Masliah et al. “Dopaminergic loss and inclusion body formation in alphα-synuclein mice: implications for neurodegenerative disorders” Science 287(5456): 1265-69, 2000; incorporated herein by reference). Animals from this line have α-synuclein neuronal inclusions in the cortex, hippocampus, and the olfactory bulb (Masliah et al. “Dopaminergic loss and inclusion body formation in alphα-synuclein mice: implications for neurodegenerative disorders” Science 287(5456): 1265-69, 2000; incorporated herein by reference). Transgenic mice were orally administered either FTI in 20% cyclodextrin solution or the same volume of vehicle alone twice a day for 30 or 90 days. […]
(§4) Treatment with 35 mg/kg Zarnestra twice a day for 30 days decreased levels of α-synuclein protein in the cortex and the amount of farnesylated UCH-L1 in the cortex of transgenic mice. Total α-synuclein levels were analyzed by a sandwich ELISA assay similar to one previously described (El-Agnaf et al. “Detection of oligomeric forms of alphα-synuclein protein in human plasma as a potential biomarker for Parkinson's disease” FASEB J. 20(3):419-25, 2006; incorporated herein by reference). […] The amount of UCH-L1 was determined by quantitative Western Blot. […]

α-synuclein [7] = assay: Sandwich ELISA of total α-synuclein in cortex fractions of α-synuclein transgenic mice; format: in vivo; settings: 45 mg/kg twice a day for 30 days, vs vehicle-treated transgenic mice
Procedure: as §3, §4

[8] = tested on: ubiquitin-immunoreactive inclusions; assay: Ubiquitin immunohistochemistry in α-synuclein transgenic mice; format: in vivo; settings: 35 mg/kg twice a day for 30 days, vs vehicle
Procedure: (§5) Farnesyl transferase inhibitors Zarnestra and OSI-754 were administered to mice of the α-synuclein transgenic line described in Masliah et al. (Masliah et al. “Dopaminergic loss and inclusion body formation in alphα-synuclein mice: implications for neurodegenerative disorders” Science 287(5456): 1265-69, 2000; incorporated herein by reference). Animals from this line have α-synuclein neuronal inclusions in the cortex, hippocampus, and the olfactory bulb (Masliah et al. “Dopaminergic loss and inclusion body formation in alphα-synuclein mice: implications for neurodegenerative disorders” Science 287(5456): 1265-69, 2000; incorporated herein by reference). Transgenic mice were orally administered either FTI in 20% cyclodextrin solution or the same volume of vehicle alone twice a day for 30 or 90 days. In some cases, non-transgenic mice also received vehicle twice a day for 30 to 90 days. At the end of treatment, mice were sacrificed, and the brains removed and hemisected. […]
as §2, with “quantified. […] These regions were also analyzed for ubiquitin-immunoreactive inclusions and by the Campbell Switzer method of silver staining. […]” for “quantified.”

[9] = tested on: Lewy body-like inclusions; assay: Campbell Switzer silver staining of Lewy body-like inclusions in α-synuclein transgenic mice; format: in vivo; settings: 35 mg/kg twice a day for 30 days, vs vehicle
Procedure: as §5
as §2, with “quantified. […] These regions were also analyzed for ubiquitin-immunoreactive inclusions and by the Campbell Switzer method of silver staining. […]” for “quantified.”

[10] = 9 mg/kg twice a day for 90 days, vs vehicle
[11] = 45 mg/kg twice a day for 90 days, vs vehicle
[12] = 35 mg/kg twice a day for 30 days, vs vehicle

SMILES: COC(=O)[C@H](CCSC)NC(=O)c1ccc(NC[C@@H](N)CS)cc1-c1ccccc1 [FTI-277]
- synuclein level (α-synuclein [1]; COS-7 cells): lowers synuclein level
- α-synuclein toxicity [2]: inhibit α-synuclein toxicity
- amount of α-synuclein (α-synuclein [3]): reducing the amount of α-synuclein accumulation; also recorded: reduced the amount of α-synuclein
- amount of cytosolic UCH-L1 (UCH-L1 [4]): without affecting
- amount of membrane bound UCH-L1 (UCH-L1 [4]): significant decrease; also recorded: decreased the amount of the membrane-associated species; also recorded: reducing the amount of membrane-associated protein
- total amount of UCH-L1 (UCH-L1 [5]): reduced the total amount of UCH-L1
- rate of turnover of UCH-L1 (UCH-L1 [5]; pulse-chase experiment not shown): increased its rate of turnover
- α-synuclein toxicity / loss of cells ([6]; SH-SY5Y cells overexpressing α-synuclein via adenovirus, compared to DMSO): inhibits synuclein toxicity; also recorded: rescued α-synuclein toxicity; also recorded: significantly decreased loss of cells
- neuroprotective effect of FTI-277 on co-administration of the small-molecule UCH-L1 inhibitor ([6]; SH-SY5Y cells overexpressing α-synuclein, not shown): eliminated

SMILES: C#Cc1cccc(-c2cc(=O)n(C)c3ccc(C(O)(c4ccc(Cl)cc4)c4cncn4C)cc23)c1 (stereo not shown) [OSI-754]
- inclusions vs vehicle (human α-synuclein; 9 mg/kg twice a day for 90 days): fewer inclusions
- α-synuclein-positive cells per mm^2, cortex (human α-synuclein; [10]): fewer α-synuclein-positive cells
- α-synuclein-positive cells per mm^2, hippocampus (human α-synuclein; [10]): fewer α-synuclein-positive cells
- inclusions vs vehicle (human α-synuclein; 45 mg/kg twice a day for 90 days): fewer inclusions
- α-synuclein-positive cells per mm^2, cortex (human α-synuclein; [11]): fewer α-synuclein-positive cells
- α-synuclein-positive cells per mm^2, hippocampus (human α-synuclein; [11]): fewer α-synuclein-positive cells
- amount of farnesylated UCH-L1 in the cortex (farnesylated UCH-L1; 45 mg/kg twice a day for 30 days, normalized to actin): decreased the amount of farnesylated UCH-L1
- α-synuclein protein levels, cortex cytoplasmic fraction (α-synuclein [7]): lower α-synuclein protein levels
- α-synuclein protein levels, cortex membrane fraction (α-synuclein [7]): lower α-synuclein protein levels

SMILES: CC(=O)N[C@@H](CSC(=O)[C@]1([C@@H](O)C(C)C)NC(=O)[C@H](C)[C@@H]1O)C(=O)O [lactacystin]
- accumulation of α-synuclein (α-synuclein [1]; transfected COS-7 cells, 16 kDa α-synuclein normalized against actin, sets the scale): 100%

SMILES: Cn1cncc1[C@@](N)(c1ccc(Cl)cc1)c1ccc2c(c1)c(-c1cccc(Cl)c1)cc(=O)n2C [Zarnestra]
- ubiquitin-immunoreactive inclusions [8]: fewer ubiquitin-immuoreactive inclusions
- α-synuclein-positive cells per mm, cortex (human α-synuclein; [12]): significantly fewer
- α-synuclein-positive cells per mm, hippocampus (human α-synuclein; [12]): significantly fewer
- inclusions vs vehicle (human α-synuclein; transgenic mice, 35 mg/kg orally twice a day for 30 days): fewer inclusions
- amount of farnesylated UCH-L1 in the cortex (farnesylated UCH-L1; 35 mg/kg twice a day for 30 days, membrane fraction): decreased the amount of farnesylated UCH-L1 in transgenic mice to levels similar to non-transgenic mice
- Campbell-Switzer stained inclusions [9]: fewer inclusions
